*: point of attachment. NHNH2 = NN*
Columns and labels:
Assay type in all cases: cell-based
HepG2 cells [1] = assay: EGFP mRNA delivery, robotic library screening, HepG2; conditions: HepG2 cells
In short: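 This robotic library screen tested delivery of CleanCap EGFP mRNA (5moU) into HepG2 cells using amphiphilic molecules. Complexes were freshly prepared at room temperature and added to the cells, and the medium was then replaced with fresh DMEM plus 10% FBS. Total EGFP fluorescence was measured in a plate reader at 72 h in triplicate, with untreated-cell background subtracted.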

ARPE19 cells = assay: RLuc pDNA delivery, robotic library screening, ARPE19
HepG2 cells [2] = assay: RLuc pDNA delivery, robotic library screening, HepG2
In short: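 After the 4 h exposure the complexes were replaced with fresh DMEM plus 10% FBS. At 72 hours cells were washed with HBSS, kept 30 minutes at 37° C. for basal readings, then given coelenterazine h (5 μM final) for 10 minutes before total luminescence was read. Triplicate means had untransfected background subtracted and were also expressed relative to Lipofectamine® 2000 set at 1.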

| Substance | mean fluorescence intensity after transfection of EGFP mRNA (HepG2 cells [1]; Myristoleyl, 5 μM) | mean fluorescence intensity after transfection of EGFP mRNA (HepG2 cells [1]; Myristoleyl, 15 μM) | mean fluorescence intensity after transfection of EGFP mRNA (HepG2 cells [1]; Palmitoleyl, 5 μM) | mean fluorescence intensity after transfection of EGFP mRNA (HepG2 cells [1]; Palmitoleyl, 10 μM) | mean fluorescence intensity after transfection of EGFP mRNA (HepG2 cells [1]; Palmitoleyl, 15 μM) | mean luminescent intensity (RLuc pDNA) (ARPE19 cells; Myristoleyl, 5 μM) | mean luminescent intensity (RLuc pDNA) (ARPE19 cells; Myristoleyl, 10 μM) | mean luminescent intensity (RLuc pDNA) (ARPE19 cells; Myristoleyl, 15 μM) | mean luminescent intensity (RLuc pDNA) (ARPE19 cells; Palmitoleyl, 5 μM) | mean luminescent intensity (RLuc pDNA) (ARPE19 cells; Petroselinyl, 5 μM) | mean luminescent intensity (RLuc pDNA) (HepG2 cells [2]; Dodecanal, 10 μM) | mean luminescent intensity (RLuc pDNA) (HepG2 cells [2]; Dodecanal, 15 μM) | mean luminescent intensity (RLuc pDNA) (HepG2 cells [2]; Myristoleyl, 10 μM) | mean luminescent intensity (RLuc pDNA) (HepG2 cells [2]; Myristoleyl, 15 μM) | mean luminescent intensity (RLuc pDNA) (HepG2 cells [2]; Oleyl, 5 μM) | mean fluorescence intensity after transfection of EGFP mRNA (HepG2 cells [1]; Dodecanal, 10 μM) | mean fluorescence intensity after transfection of EGFP mRNA (HepG2 cells [1]; Oleyl, 5 μM) | mean fluorescence intensity after transfection of EGFP mRNA (HepG2 cells [1]; Petroselinyl, 10 μM) | mean fluorescence intensity after transfection of EGFP mRNA (HepG2 cells [1]; Petroselinyl, 15 μM) | mean luminescent intensity (RLuc pDNA) (ARPE19 cells; Dodecanal, 5 μM) | also measured |
| --- | --- | --- | --- | --- | --- | --- | --- | --- | --- | --- | --- | --- | --- | --- | --- | --- | --- | --- | --- | --- | --- |
| Ac-RRHK*RLK*RRLK*RL-NH2 (Ac-RRHK(NHNH2)RLK(NHNH2)RRLK(NHNH2)RL-NH2; not fully specified; printed as Ac-RRHK*RLK*RRLK*RL-NH2; also: K*4,K*7,K*11: native or modified lysine (ε-amide to a linker)) [13(Leu-His)] | 2950 | 308 | 1636 | 574 | −350 | 6946 RLU | 72 RLU | 102 RLU | 8615 RLU | 4661 RLU | 12080 RLU | 73505 RLU | 61828 RLU | 35356 RLU | 116466 RLU | – | – | – | – | – | mean luminescent intensity (RLuc pDNA) (HepG2 cells [2]; Palmitoleyl, 10 μM): 71476 RLU |
| Ac-RRLK*RLK*RRLK*RL-NH2 [Peptide 13.3] | – | – | 689 | 986 | 974 | 6819 RLU | 3064 RLU | −316 RLU | 13194 RLU | 1458 RLU | – | – | 54569 RLU | 59751 RLU | – | 674 | 1087 | 1128 | 967 | 2557 RLU | mean fluorescence intensity after transfection of EGFP mRNA (HepG2 cells [1]; Dodecanal, 15 μM): 606; mean luminescent intensity (RLuc pDNA) (ARPE19 cells; Oleyl, 5 μM): 1946 RLU; mean luminescent intensity (RLuc pDNA) (ARPE19 cells; Oleyl, 10 μM): 957 RLU; mean luminescent intensity (RLuc pDNA) (ARPE19 cells; Oleyl, 15 μM): 1379 RLU; mean luminescent intensity (RLuc pDNA) (ARPE19 cells; Petroselinyl, 10 μM): 35316 RLU; mean luminescent intensity (RLuc pDNA) (ARPE19 cells; Petroselinyl, 15 μM): 5730 RLU; mean luminescent intensity (RLuc pDNA) (HepG2 cells [2]; Myristoleyl, 5 μM): 91601 RLU; mean luminescent intensity (RLuc pDNA) (HepG2 cells [2]; Oleyl, 15 μM): −1067 RLU; mean luminescent intensity (RLuc pDNA) (HepG2 cells [2]; Palmitoleyl, 5 μM): 70999 RLU; mean luminescent intensity (RLuc pDNA) (HepG2 cells [2]; Palmitoleyl, 15 μM): 16521 RLU; mean luminescent intensity (RLuc pDNA) (HepG2 cells [2]; Petroselinyl, 5 μM): 76240 RLU |
| Ac-RRLK*RLLRRLK*RLK*RRL-NH2 (Ac-RRLK(NHNH2)RLLRRLK(NHNH2)RLK(NHNH2)RRL-NH2; not fully specified; printed as Ac-RRLK*RLLRRLK*RLK*RRL-NH2; also: K*4,K*11,K*14: native or modified lysine (ε-amide to a linker)) [Peptide 17.3] | 39022 | −417 | 63064 | 7710 | 356 | −148 RLU | −514 RLU | −339 RLU | 7062 RLU | 5399 RLU | 2293 RLU | −1196 RLU | – | −417 RLU | 6483 RLU | 2293 | 6483 | 5790 | 157 | 411 RLU | mean fluorescence intensity after transfection of EGFP mRNA (HepG2 cells [1]; Dodecanal, 5 μM): 32417; mean fluorescence intensity after transfection of EGFP mRNA (HepG2 cells [1]; Myristoleyl, 10 μM): 251; mean fluorescence intensity after transfection of EGFP mRNA (HepG2 cells [1]; Petroselinyl, 5 μM): 56287; mean luminescent intensity (RLuc pDNA) (ARPE19 cells; Dodecanal, 10 μM): 617 RLU; mean luminescent intensity (RLuc pDNA) (ARPE19 cells; Dodecanal, 15 μM): 1217 RLU; mean luminescent intensity (RLuc pDNA) (ARPE19 cells; Oleyl, 10 μM): 822 RLU; mean luminescent intensity (RLuc pDNA) (ARPE19 cells; Oleyl, 15 μM): 1043 RLU; mean luminescent intensity (RLuc pDNA) (ARPE19 cells; Palmitoleyl, 15 μM): 413 RLU; mean luminescent intensity (RLuc pDNA) (ARPE19 cells; Petroselinyl, 15 μM): 398 RLU; mean luminescent intensity (RLuc pDNA) (HepG2 cells [2]; Dodecanal, 5 μM): 32417 RLU; mean luminescent intensity (RLuc pDNA) (HepG2 cells [2]; Myristoleyl, 5 μM): 39022 RLU; mean luminescent intensity (RLuc pDNA) (HepG2 cells [2]; Oleyl, 15 μM): −1375 RLU; mean luminescent intensity (RLuc pDNA) (HepG2 cells [2]; Palmitoleyl, 5 μM): 63064 RLU; mean luminescent intensity (RLuc pDNA) (HepG2 cells [2]; Palmitoleyl, 15 μM): 356 RLU |

Source: patent US20250304623A1, “PEPTIDES FOR INTRACELLULAR DELIVERY” (UNIVERSIDADE DE SANTIAGO DE COMPOSTELA, priority 2022, published 2025)
